The values below come from patent US20240150356A1, “Pyrimidine amide compounds and use thereof” (ALPHALA CO., LTD., priority 2019, published 2024).

For one test, the system named is Hep3B cells (hepatocellular carcinoma cell line). Nature of the test: In vitro MTS cell viability assay (NCI-60 methodology), Hep3B. The format is cell-based. The note with it: Homo sapiens, 48 h, Table 1, MTS, 2 days drug incubation, 50% reduction vs time zero, read-out: Hep3B LC50. An outline of the steps:
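Following NCI-60 method, MTS viability of Hep3B measured 24 h after plating (time zero) and after a further 2-day exposure to five concentrations (2-fold series). LC50 defined where [(Ti−Tz)/Tz]×100 = −50.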
Broadly, the LC50 is the concentration that kills 50% of the test population. For the molecule `Cn1ncc2c(NC(=O)c3ccc([N+](=O)[O-])s3)nc(-c3ccccc3OC(F)(F)F)nc21` [Compound 1-8, N-(1-methyl-6-(2-(trifluoromethoxy)phenyl)-1H-pyrazolo[3,4-d]pyrimidin-4-yl)-5-nitrothiophene-2-carboxamide], the LC50 stood at 2530 nM.

As to `Cn1ncc2c(NC(=O)c3ccc([N+](=O)[O-])s3)nc(-c3cccc(OC(F)(F)F)c3)nc21` [Compound 1-6, N-(1-methyl-6-(3-(trifluoromethoxy)phenyl)-1H-pyrazolo[3,4-d]pyrimidin-4-yl)-5-nitrothiophene-2-carboxamide], the LC50 came out at 1470 nM.

The test is the same for the next values; noted with them: Homo sapiens, 48 h, Table 2, MTS, 2 days drug incubation, 50% reduction vs time zero, read-out: Hep3B LC50.
Turning to `Cn1ncc2c(-c3ccc(C(C)(C)C)cc3)nc(NC(=O)c3ccc([N+](=O)[O-])s3)nc21` [Compound 2-1, N-(4-(4-(tert-but)phenyl)-1-methyl-1H-pyrazolo[3,4-d]pyrimidin-6-yl)-5-nitrothiophene-2-carboxamide], the LC50 was 3130 nM.

The same test, now with this note: Homo sapiens, 48 h, Table 5, MTS, 2 days drug incubation, 50% reduction vs time zero, read-out: Hep3B LC50.
As to `O=C(Nc1nc(Oc2ccc(F)cc2)nc2c1cnn2-c1ccccc1)c1ccc([N+](=O)[O-])s1` [Compound 5-14, N-(6-(4-fluorophenoxy)-1-phenyl-1H-pyrazolo[3,4-d]pyrimidin-4-yl)-5-nitrothiophene-2-carboxamide], the LC50 is more than 5000 nM.

Consider `COCCOc1ccc(-c2nc(NC(=O)c3ccc([N+](=O)[O-])s3)c3cnn(-c4ccccc4)c3n2)cn1` [Compound 5-54, N-(6-(6(2-methoxyethoxy)pyridin-3-yl)-1-phenyl-1H-pyrazolo[3,4-d]pyrimidin-4-yl)-5-nitrothiophene-2-carboxamide], for which the LC50 came to 340 nM.

Staying with this test, now noted: Homo sapiens, 48 h, Table 6, MTS, 2 days drug incubation, 50% reduction vs time zero, read-out: Hep3B LC50.
For the molecule `O=C(Nc1nc(-c2ccc(Cl)cc2)nc2c1cnn2-c1cccc(Cl)c1)c1ccc([N+](=O)[O-])s1` [Compound 6-38, N-(1-(3-chlorophenyl)-6-(4-chlorophenyl)-1H-pyrazolo[3,4-d]pyrimidin-4-yl)-5-nitrothiophene-2-carboxamide], the LC50 was 380 nM. The same measure, in the same setting: under `CC1CC=C(c2nc(NC(=O)c3ccc([N+](=O)[O-])s3)c3cnn(-c4ccc(F)cc4)c3n2)CC1` (stereo not drawn) [Compound 6-142] stands 740 nM. Take `O=C(Nc1nc(N2CCC(F)(F)CC2)nc2c1cnn2-c1ccc(F)cc1)c1ccc([N+](=O)[O-])s1` [Compound 6-98, N-(6-(4,4-difluoropiperidin-1-yl)-1-(4-fluorophenyl)-1H-pyrazolo[3,4-d]pyrimidin-4-yl)-5-nitrothiophene-2-carboxamide]: the LC50 is 430 nM.

In the case of `COc1ccc(-n2ncc3c(NC(=O)c4ccc([N+](=O)[O-])s4)nc(-c4ccc5c(c4)OCO5)nc32)cc1` [Compound 6-24, N-(6-(benzo[d][1,3]dioxol-5-yl)-1-(4-methoxyphenyl)-1H-pyrazolo[3,4-d]pyrimidin-4-yl)-5-nitrothiophene-2-carboxamide], the LC50 is 190 nM. The same measure, in the same setting: with `CC(C)(C)c1ccc(-n2ncc3c(NC(=O)c4ccc([N+](=O)[O-])s4)nc(-c4cccc(F)c4)nc32)cc1` [Compound 6-80, N-(1-(4-(tert-butyl)phenyl)-6-(3-fluorophenyl)-1H-pyrazolo[3,4-d]pyrimidin-4-yl)-5-nitrothiophene-2-carboxamide] the figure was 780 nM. The same measure, in the same setting: with `CCOCCOCCOc1cc(C)c(-c2nc(NC(=O)c3ccc([N+](=O)[O-])s3)c3cnn(-c4ccc(F)cc4)c3n2)cn1` [Compound 6-139, N-(6-(6-(2-(2-ethoxyethoxy)ethoxy)-4-methylpyridin-3-yl)-1-(4-fluorophenyl)-1H-pyrazolo[3,4-d]pyrimidin-4-yl)-5-nitrothiophene-2-carboxamide] the figure was 210 nM; with `Cc1ccc(-n2ncc3c(NC(=O)c4ccc([N+](=O)[O-])s4)nc(-c4ccc5c(c4)OCO5)nc32)cc1` [Compound 6-9], 400 nM. Still for that read-out and setting: with `CCCOc1ccc(-c2nc(NC(=O)c3ccc([N+](=O)[O-])s3)c3cnn(-c4ccc(OC)cc4)c3n2)cn1` [Compound 6-25] the figure was 210 nM; with `CCOc1cc(Cl)ccc1-c1nc(NC(=O)c2ccc([N+](=O)[O-])s2)c2cnn(-c3ccc(F)cc3)c2n1` [Compound 6-129, N-(6-(4-chloro-2-ethoxyphenyl)-1-(4-fluorophenyl)-1H-pyrazolo[3,4-d]pyrimidin-4-yl)-5-nitrothiophene-2-carboxamide], more than 3000 nM; with `Cc1ccn(-c2nc(NC(=O)c3ccc([N+](=O)[O-])s3)c3cnn(-c4ccc(Cl)cc4)c3n2)n1` [Compound 6-46, N-(1-(4-chlorophenyl)-6-(3-methyl-1H-pyrazol-1-yl)-1H-pyrazolo[3,4-d]pyrimidin-4-yl)-5-nitrothiophene-2-carboxamide], 160 nM. With `O=C(Nc1nc(-c2ccc(Cl)cc2)nc2c1cnn2-c1ccc(Cl)cc1)c1ccc([N+](=O)[O-])s1` [Compound 6-49, N-(1,6-bis(4-chlorophenyl)-1H-pyrazolo[3,4-d]pyrimidin-4-yl)-5-nitrothiophene-2-carboxamide], the LC50 is 170 nM. `CCOCCOCCOc1ccc(-c2nc(NC(=O)c3ccc([N+](=O)[O-])s3)c3cnn(-c4cccc(F)c4)c3n2)cn1` [Compound 6-96, N-(6-(6-(2-(2-ethoxyethoxy)ethoxy)pyridin-3-yl)-1-(3-fluorophenyl)-1H-pyrazolo[3,4-d]pyrimidin-4-yl)-5-nitrothiophene-2-carboxamide]: the LC50 came to 350 nM.

Still in this test, the particulars now being: Homo sapiens, 48 h, Table 7, MTS, 2 days drug incubation, 50% reduction vs time zero, read-out: Hep3B LC50.
For `O=C(Nc1nc(-c2ccc(F)cc2F)nc2c1cnn2-c1ccc(C(F)(F)F)cn1)c1ccc([N+](=O)[O-])s1` [Compound 7-6], the LC50 was 150 nM.

Staying with this test, now noted: Homo sapiens, 48 h, Table 8, MTS, 2 days drug incubation, 50% reduction vs time zero, read-out: Hep3B LC50.
Consider `C[C@@H]1C[C@@H](n2ncc3c(NC(=O)c4ccc([N+](=O)[O-])s4)nc(-c4ccc(Cl)nc4)nc32)CC(C)(C)C1` [Compound 8-16, N-(6-(6-chloropyridin-3-yl)-1-((1R,5S)-3,3,5-trimethylcyclohexyl)-1H-pyrazolo[3,4-d]pyrimidin-4-yl)-5-nitrothiophene-2-carboxamide], for which the LC50 was determined as 590 nM.

The test is the same for the next values; noted with them: Homo sapiens, 48 h, Table 9, MTS, 2 days drug incubation, 50% reduction vs time zero, read-out: Hep3B LC50.
Turning to `CCOC(=O)N1CCC(n2ncc3c(NC(=O)c4ccc([N+](=O)[O-])s4)nc(-c4ccc(F)nc4)nc32)CC1` [Compound 9-2, ethyl 4-(6-(6-fluoropyridin-3-yl)-4-(5-nitrothiophene-2-carboxamide)-1H-pyrazolo [3,4-d]pyrimidin-1-yl)piperidine-1-carboxylate], the LC50 was more than 5000 nM. On to `CCOCCOCCOC(=O)N1CCC(n2ncc3c(NC(=O)c4ccc([N+](=O)[O-])s4)nc(-c4cccs4)nc32)CC1` [Compound 9-10, 2-(2-ethoxyethoxy)ethyl 4-(4-(5-nitrothiophene-2-carboxamido)-6-(thiophen-2-yl)-1H-pyrazolo[3,4-d]pyrimidin-1-yl)piperidine-1-carboxylate], for which the LC50 is more than 3000 nM.

Still in this test, the particulars now being: Homo sapiens, 48 h, Table 10, MTS, 2 days drug incubation, 50% reduction vs time zero, read-out: Hep3B LC50.
For `O=C(Nc1nc(-c2cc(F)cc(F)c2)nc2c1cnn2C1CCCCC1)c1ccc([N+](=O)[O-])s1` [Compound 10-41], the LC50 was 790 nM.

`O=C(Nc1nc(-c2ccc3c(c2)OCO3)nc2c1cnn2C1CCCCC1)c1ccc([N+](=O)[O-])s1` [Compound 10-36, N-(6-(benzo[d][1,3]dioxol-5-yl)-1-cyclohexyl-1H-pyrazolo[3,4-d]pyrimidin-4-yl)-5-nitrothiophene-2-carboxamide]: the LC50 is 2120 nM.

In the case of `O=C(Nc1nc(-c2ccccc2F)nc2c1cnn2C1CCCCC1)c1ccc([N+](=O)[O-])s1` [Compound 10-11, N-(1-cyclohexyl-6-(2-fluorophenyl)-1H-pyrazolo[3,4-d]pyrimidin-4-yl)-5-nitrothiophene-2-carboxamide], the LC50 was 1940 nM.
